In paper PMC8177097 (FEBS letters, 2020):

Columns and labels:
lipocalin Blc (wtBlc) [1] = molecular target: T1, lipocalin Blc (wtBlc) (Escherichia coli, UniProt P0A901); experiment: tryptophan fluorescence quenching titration; format: binding
T1 sequence (P0A901 19-177): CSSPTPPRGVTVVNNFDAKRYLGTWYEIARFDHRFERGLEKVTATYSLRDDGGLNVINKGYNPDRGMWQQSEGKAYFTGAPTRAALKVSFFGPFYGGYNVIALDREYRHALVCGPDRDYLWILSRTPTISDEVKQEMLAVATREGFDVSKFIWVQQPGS

lipocalin Blc (wtBlc) [2] = molecular target: T1, lipocalin Blc (wtBlc); experiment: spectrophotometric hemin titration; format: binding

Row | Kd (lipocalin Blc (wtBlc) [1]) | Kd (lipocalin Blc (wtBlc) [2]) | Compound
1 | 0.14 ± 0.1 nM |  | CC1=C(CCC(=O)O)c2cc3[nH]c(cc4nc(cc5[nH]c(cc1n2)c(C)c5C(C)O)C(C)=C4C(C)O)c(C)c3CCC(=O)O (centres unmarked) [HP, hematoporphyrin]
2 |  | 1400 ± 300 nM | C=CC1=C(C)C2=Cc3c(C=C)c(C)c4[n]3[Fe][n]3c(c(C)c(CCC(=O)O)c3=CC3=NC(=C4)C(C)=C3CCC(=O)O)=CC1=N2 [heme]
